Measurements from patent US5714469A, “Method of treating sepsis” (priority 1994, dated 1998).

system: clinical isolate of E. coli isolated from sputum; assay: Antibiotic sensitivity by disc-agar diffusion technique; assay type: cell-based
Protocol: A clinical isolate of E. coli isolated from sputum was utilized. […] The organism was animal passed in mice and subsequently recovered and plated onto MacConkey's agar. The reisolated organisms were grown overnight in brain-heart infusion broth, and then stored frozen at -70° C. The inoculate the fibrin clot, organisms from thawed stocks were inoculated into brainheart infusion broth and incubated overnight on a rotary shaker (120 rpm) an 37° C. The E. coli was harvested by centrifugation, washed 3X and finally resuspended in normal saline. The number or organisms was quantified by turbidimentry, and the concentration adjusted with normal saline. All inoculum sizes were based on viable counts determined by scoring colony forming units on MacConkeys agar.

Row | Compound | antibiotic sensitivity of the E. coli isolate
1 | O=C(N[C@H](CO)[C@H](O)c1ccc([N+](=O)[O-])cc1)C(Cl)Cl [chloramphenicol] | sensitive
2 | CC(=O)OCC1=C(C(=O)O)N2C(=O)[C@@H](NC(=O)Cc3cccs3)[C@H]2SC1 [cephalothin] | sensitive
3 | CC[C@H]1OC(=O)[C@H](C)[C@@H](O[C@H]2C[C@@](C)(OC)[C@@H](O)[C@H](C)O2)[C@H](C)[C@@H](O[C@@H]2O[C@H](C)C[C@H](N(C)C)[C@H]2O)[C@](C)(O)C[C@@H](C)C(=O)[C@H](C)[C@@H](O)[C@]1(C)O [erythromycin] | resistant
4 | CC1(C)S[C@@H]2[C@H](NC(=O)Cc3ccccc3)C(=O)N2[C@H]1C(=O)O [penicillin G] | resistant
5 | CN[C@H](CC(C)C)C(=O)N[C@H]1C(=O)N[C@@H](CC(N)=O)C(=O)N[C@H]2C(=O)N[C@H]3C(=O)N[C@H](C(=O)N[C@H](C(=O)O)c4cc(O)cc(O)c4-c4cc3ccc4O)[C@H](O)c3ccc(c(Cl)c3)Oc3cc2cc(c3O[C@@H]2O[C@H](CO)[C@@H](O)[C@H](O)[C@H]2O[C@H]2C[C@](C)(N)[C@H](O)[C@H](C)O2)Oc2ccc(cc2Cl)[C@H]1O [vancomycin] | resistant
6 | NC[C@H]1O[C@H](O[C@H]2[C@H](O)[C@@H](O[C@H]3O[C@H](CO)[C@@H](O)[C@H](N)[C@H]3O)[C@H](N)C[C@@H]2N)[C@H](O)[C@@H](O)[C@@H]1O [kanamycin] | sensitive
7 | CC1(C)S[C@@H]2[C@H](NC(=O)[C@H](N)c3ccccc3)C(=O)N2[C@H]1C(=O)O [ampicillin] | sensitive
8 | gentamicin | sensitive
9 | CN(C)[C@@H]1C(O)=C(C(N)=O)C(=O)[C@@]2(O)C(O)=C3C(=O)c4c(O)cccc4[C@@](C)(O)[C@H]3C[C@@H]12 [tetracycline] | sensitive
10 | trimethoprin/sulfamethoxazole | sensitive
